Experimental data from patent US20180368404A1, “3-PYRIDYL HETEROBICYCLIC COMPOUND FOR CONTROLLING INVERTEBRATE PESTS” (BASF SE, priority 2014, published 2018).

Key:
Assay type in all cases: in vivo
[1] = test system: Cowpea Aphid (Aphis craccivora); assay: Cowpea aphid spray test on potted cowpea plants; conditions: population reduction assessed after 24, 72 and 120 hours, read-out: mortality in comparison with untreated controls
Protocol: If not otherwise specified the test solutions were prepared as follows:
The active compound was dissolved at the desired concentration in a mixture of 1:1 (vol:vol) distilled water: acetone. The test solution was prepared at the day of use and in general at concentrations of ppm (wt/vol).
Potted cowpea plants colonized with 100-150 aphids of various stages were sprayed after the pest population had been recorded. Population reduction was assessed after 24, 72, and 120 hours.

[2] = test system: Silverleaf Whitefly (Bemisia argentifolii, Adult); assay: Silverleaf whitefly test on sprayed cotton plants; conditions: 72 h, 3 days after treatment, read-out: mortality in comparison with untreated controls
Protocol: (§1) The active compounds were formulated in cyclohexanone as a 10,000 ppm solution supplied in 1.3 ml ABgene® tubes. These tubes were inserted into an automated electrostatic sprayer equipped with an atomizing nozzle and they served as stock solutions for which lower dilutions were made in 1:1 (vol:vol) water: acetone. A nonionic surfactant (Kinetic®) was included in the solution at a volume of 0.01% (v/v).
Cotton plants at the cotyledon stage (one plant per pot) were sprayed by an automated electrostatic plant sprayer equipped with an atomizing spray nozzle. The plants were dried in the sprayer fume hood and then removed from the sprayer. Each pot was placed into a plastic cup and 10 to 12 whitefly adults (approximately 3-5 days […]) were introduced. The insects were collected using an aspirator and 0.6 cm, nontoxic Tygon® tubing (R-3603) connected to a barrier pipette tip. The tip, containing the collected insects, was then gently inserted into the soil containing the treated plant, allowing insects to crawl out of the tip to reach the foliage for feeding. Cups were covered with a reusable screened lid (150-micron mesh polyester screen PeCap from Tetko, Inc.). Test plants were maintained in a growth room at 25° C. and 20-40% relative humidity for 3 days, avoiding direct exposure to fluorescent light (24 hour photoperiod) to prevent trapping of heat inside the cup. Mortality was assessed 3 days after treatment, compared to untreated control plants.

[3] = test system: Vetch Aphid (Megoura viciae); assay: Vetch aphid bean leaf disk microtiter test; conditions: foliar, 144 h, leaf disks sprayed with 2.5 μl, 6 days, read-out: mortality in comparison with untreated controls
Protocol: The active compounds were formulated in 3:1 (vol:vol) water: DMSO with different concentrations of formulated compounds.
Bean leaf disks were placed into microtiterplates filled with 0.8% agar-agar and 2.5 ppm OPUS™. The leaf disks were sprayed with 2.5 μl of the test solution and 5 to 8 adult aphids were placed into the microtiter plates which were then closed and kept at 23±1° C. and 50±5% relative humidity under fluorescent light for 6 days. Mortality was assessed on the basis of vital, reproduced aphids. Aphid mortality and fecundity was then visually assessed.

[4] = test system: Cotton Aphid (Aphis gossypii, Mixed Life Stages); assay: Cotton aphid spray test on infested cotton plants; conditions: 120 h, after 5 days, read-out: mortality in comparison with untreated controls
Protocol: as §1
Cotton plants at the cotyledon stage were infested with aphids prior to treatment by placing a heavily infested leaf from the main aphid colony on top of each cotyledon. Aphids were allowed to transfer overnight to accomplish an infestation of 80-100 aphids per plant and the host leaf was removed. The infested plants were then sprayed by an automated electrostatic plant sprayer equipped with an atomizing spray nozzle. The plants were dried in the sprayer fume hood, removed from the sprayer, and then maintained in a growth room under fluorescent lighting in a 24-hr photoperiod at 25° C. and 20-40% relative humidity. Aphid mortality on the treated plants, relative to mortality on untreated control plants, was determined after 5 days.

[5] = test system: Green Peach Aphid (Myzus persicae); assay: Green peach aphid spray test on infested bell pepper plants; conditions: 120 h, after 5 days, read-out: mortality in comparison with untreated controls
Protocol: as §1
Bell pepper plants at the first true-leaf stage were infested prior to treatment by placing heavily infested leaves from the main colony on top of the treatment plants. Aphids were allowed to transfer overnight to accomplish an infestation of 30-50 aphids per plant and the host leaves were removed. The infested plants were then sprayed by an automated electrostatic plant sprayer equipped with an atomizing spray nozzle. The plants were dried in the sprayer fume hood, removed, and then maintained in a growth room under fluorescent lighting in a 24 hour photoperiod at 25° C. and 20-40% relative humidity. Aphid mortality on the treated plants, relative to mortality on untreated control plants, was determined after 5 days.

[6] = test system: Orchid thrips (Dichromothrips corbetti); assay: Orchid thrips petal dip test; conditions: petals dipped, after 72 hours, read-out: mortality in comparison with untreated controls
Protocol: The active compounds were formulated as a 1:1 (vol:vol) water: acetone solution. Surfactant (Alkamuls EL 620) was added at the rate of 0.1% (vol/vol). Vanda orchids petals were cleaned, washed and air dried prior to spraying. Petals were dipped into the test solution for 3 seconds, air dried, placed inside a resealable plastic and inoculated with 20 adults. The treated petals were kept inside the […] room at 28-29° C. and relative humidity of 50-60%. Percent mortality was recorded after 72 hours.

COc1ccc2nc(-c3cccnc3)oc2c1 [I-1, 6-methoxy-2-(3-pyridyl)-1,3-benzoxazole]
≥ 75%: mortality at 500 ppm [1]

COc1ccc2nn(-c3cccnc3)cc2c1 [I-B4, 5-methoxy-2-(3-pyridyl)indazole]
≥ 75%: mortality at 300 ppm [2]

CCOCCSc1ccc2nn(-c3cccnc3)cc2c1 [I-B5, 5-(2-ethoxyethylsulfanyl)-2-(3-pyridyl)indazole]
≥ 75%: mortality at 500 ppm [1] | mortality at 800 ppm [3]

CCOCCSc1cccc2nn(-c3cccnc3)cc12 [I-C1, 4-(2-ethoxyethylsulfanyl)-2-(3-pyridyl)indazole]
≥ 75%: mortality at 300 ppm [4] | mortality at 300 ppm [2] | mortality at 300 ppm [5] | mortality at 500 ppm [1] | mortality at 800 ppm [3]

CCOCCSc1ccc2nn(-c3cccnc3)cc2n1 [I-D16, 5-(2-ethoxyethylsulfanyl)-2-(3-pyridyl)pyrazolo[4,3-b]pyridine]
≥ 75%: mortality at 300 ppm [4] | mortality at 300 ppm [5] | mortality at 800 ppm [3]

CCOCC[S+]([O-])c1ccc2nn(-c3cccnc3)cc2n1 (centres unmarked) [I-D39, 5-(2-ethoxyethylsulfinyl)-2-(3-pyridyl)pyrazolo[4,3-b]pyridine]
≥ 75%: mortality at 300 ppm [4] | mortality at 300 ppm [2] | mortality at 300 ppm [5] | mortality at 800 ppm [3]

CCOCCS(=O)(=O)c1ccc2nn(-c3cccnc3)cc2n1 [I-D46, 5-(2-ethoxyethylsulfonyl)-2-(3-pyridyl)pyrazolo[4,3-b]pyridine]
≥ 75%: mortality at 300 ppm [4] | mortality at 300 ppm [2] | mortality at 300 ppm [5] | mortality at 800 ppm [3]

COc1ccc2nn(-c3cccnc3)cc2n1 [I-D57, 5-methoxy-2-(3-pyridyl)pyrazolo[4,3-b]pyridine]
≥ 75%: mortality at 300 ppm [4] | mortality at 300 ppm [2] | mortality at 300 ppm [5] | mortality at 500 ppm [1] | mortality at 800 ppm [3]

CC(C)(COc1ccc2nn(-c3cccnc3)cc2n1)S(C)(=O)=O [I-D59, 5-(2-methyl-2-methylsulfonyl-propoxy)-2-(3-pyridyl)pyrazolo[4,3-b]pyridine]
≥ 75%: mortality at 300 ppm [4] | mortality at 300 ppm [2] | mortality at 300 ppm [5] | mortality at 500 ppm [1] | mortality at 500 ppm [6] | mortality at 800 ppm [3]

FC(F)(F)COc1ccc2nc(-c3cccnc3)cn2n1 [I-E14, 2-(3-pyridyl)-6-(2,2,2-trifluoroethoxy)imidazo[1,2-b]pyridazine]
≥ 75%: mortality at 300 ppm [4] | mortality at 300 ppm [2] | mortality at 300 ppm [5] | mortality at 800 ppm [3]

COc1ccc2nc(-c3cccnc3)sc2n1 [I-H4, 5-methoxy-2-(3-pyridyl)thiazolo[5,4-b]pyridine]
≥ 75%: mortality at 500 ppm [1]

COc1ccc2nc(-c3cccnc3)oc2n1 [I-K1, 5-methoxy-2-(3-pyridyl)oxazolo[5,4-b]pyridine]
≥ 75%: mortality at 300 ppm [4] | mortality at 300 ppm [2] | mortality at 300 ppm [5] | mortality at 500 ppm [1] | mortality at 800 ppm [3]
